According to ChEMBL document CHEMBL3885861, “Open TG-GATES”:

Species: Rattus norvegicus
Experiment: Open TG-GATES - Regimen: Single
Assay type: toxicity, organism-based, Sprague-Dawley
Design: regimen Single, gender Male, age 6 weeks
Conditions: in vivo, po, 0 mg/kg, route gavage, dose level Control; for APTT / Bas / Eos / Fbg / Ht / MCH / MCHC / MCV / Mono / PT / Plat / RBC / Ret / WBC: tissue Blood; for KIDNEY_L / KIDNEY_R / KIDNEY_TOTAL: tissue Kidney; for LIVER: tissue Liver; for ALP / AST / BUN / CRE / Ca / Cl / DBIL / GLC / IP / K / LDH / Na / PL / RALB / TBIL / TC / TG / TP / gamma-GTP: tissue Plasma

**Q.** What does the source list for CC(=O)Nc1nnc(S(N)(=O)=O)s1 [ACETAZOLAMIDE]?
**A.** TERMINAL_BW (3 h): 214.4 g; APTT (3 h): 22 s; Bas (3 h): 0%; Eos (3 h): 0.8%; Fbg (3 h): 309 mg/dL; Ht (3 h): 39.4%; MCH (3 h): 21.3 pg; MCHC (3 h): 32.9%; MCV (3 h): 64.8 fL; Mono (3 h): 2.4%; PT (3 h): 16.5 s; Plat (3 h): 118.6 x10_4/uL; RBC (3 h): 608.6 x10_4/ul; Ret (3 h): 8.8%; WBC (3 h): 89.5 x10_2/uL; KIDNEY_L (3 h): 0.9 g; KIDNEY_R (3 h): 0.9 g; KIDNEY_TOTAL (3 h): 1.9 g; LIVER (3 h): 9.8 g; ALP (3 h): 1586.4 IU/L; AST (3 h): 80.2 IU/L; BUN (3 h): 12 mg/dL; CRE (3 h): 0.2 mg/dL; Ca (3 h): 11.1 mg/dL; Cl (3 h): 106.4 meq/L; DBIL (3 h): 0 mg/dL; GLC (3 h): 187.4 mg/dL; IP (3 h): 8.2 mg/dL; K (3 h): 4 meq/L; LDH (3 h): 235.8 IU/L; Na (3 h): 143 meq/L; PL (3 h): 137.6 mg/dL; RALB (3 h): 3.1 g/dL; TBIL (3 h): 0.018 mg/dL; TC (3 h): 78 mg/dL; TG (3 h): 59.8 mg/dL; TP (3 h): 5.4 g/dL; gamma-GTP (3 h): 1 IU/L; TERMINAL_BW (6 h): 207.4 g; APTT (6 h): 22.1 s; Bas (6 h): 0%; Eos (6 h): 0.8%; Fbg (6 h): 320.2 mg/dL; Ht (6 h): 39.1%; MCH (6 h): 20.8 pg; MCV (6 h): 62.8 fL; Mono (6 h): 2%; PT (6 h): 16.5 s; Plat (6 h): 131.7 x10_4/uL; RBC (6 h): 622.4 x10_4/ul; Ret (6 h): 8.3%; WBC (6 h): 79.7 x10_2/uL; KIDNEY_L (6 h): 1 g; KIDNEY_R (6 h): 0.9 g; KIDNEY_TOTAL (6 h): 1.9 g; LIVER (6 h): 9 g; ALP (6 h): 1340.2 IU/L; AST (6 h): 63.4 IU/L; CRE (6 h): 0.1 mg/dL; Ca (6 h): 11 mg/dL; Cl (6 h): 105 meq/L; DBIL (6 h): 0 mg/dL; GLC (6 h): 186.6 mg/dL; IP (6 h): 9.4 mg/dL; K (6 h): 4.3 meq/L; LDH (6 h): 183.6 IU/L; Na (6 h): 141 meq/L; PL (6 h): 127.8 mg/dL; RALB (6 h): 3 g/dL; TBIL (6 h): 0.024 mg/dL; TC (6 h): 78 mg/dL; TG (6 h): 48.2 mg/dL; TP (6 h): 5.3 g/dL; gamma-GTP (6 h): 1.2 IU/L; TERMINAL_BW (9 h): 212.2 g; APTT (9 h): 21.9 s; Bas (9 h): 0%; Eos (9 h): 0.6%; Fbg (9 h): 293 mg/dL; Ht (9 h): 39.7%; MCH (9 h): 20.8 pg; MCHC (9 h): 32.3%; MCV (9 h): 64.3 fL; Mono (9 h): 2.2%; PT (9 h): 16.8 s; Plat (9 h): 115.3 x10_4/uL; RBC (9 h): 616.6 x10_4/ul; Ret (9 h): 8.4%; WBC (9 h): 84.8 x10_2/uL; KIDNEY_L (9 h): 1 g; KIDNEY_R (9 h): 1 g; KIDNEY_TOTAL (9 h): 1.9 g; LIVER (9 h): 8.8 g; ALP (9 h): 1423.8 IU/L; AST (9 h): 70.8 IU/L; BUN (9 h): 11 mg/dL; CRE (9 h): 0.1 mg/dL; Ca (9 h): 10.9 mg/dL; Cl (9 h): 104.8 meq/L; DBIL (9 h): 0 mg/dL; GLC (9 h): 193 mg/dL; IP (9 h): 9.3 mg/dL; K (9 h): 4.1 meq/L; LDH (9 h): 163.2 IU/L; Na (9 h): 141.6 meq/L; PL (9 h): 113.2 mg/dL; RALB (9 h): 3.1 g/dL; TBIL (9 h): 0.024 mg/dL; TC (9 h): 70.2 mg/dL; TG (9 h): 49.8 mg/dL; TP (9 h): 5.4 g/dL; gamma-GTP (9 h): 1.2 IU/L; TERMINAL_BW (24 h): 228.8 g; APTT (24 h): 20.3 s; Bas (24 h): 0%; Eos (24 h): 0.6%; Fbg (24 h): 288.8 mg/dL; Ht (24 h): 38.7%; MCH (24 h): 20.8 pg; MCHC (24 h): 33.2%; MCV (24 h): 62.9 fL; Mono (24 h): 1.6%; PT (24 h): 16.1 s; Plat (24 h): 110.7 x10_4/uL; RBC (24 h): 616.2 x10_4/ul; Ret (24 h): 7.9%; WBC (24 h): 66.7 x10_2/uL; KIDNEY_L (24 h): 1 g; KIDNEY_R (24 h): 1 g; KIDNEY_TOTAL (24 h): 2 g; LIVER (24 h): 10.7 g; ALP (24 h): 1945.2 IU/L; AST (24 h): 80.8 IU/L; BUN (24 h): 15.8 mg/dL; CRE (24 h): 0.1 mg/dL; Ca (24 h): 10.7 mg/dL; Cl (24 h): 105.8 meq/L; DBIL (24 h): 0 mg/dL; GLC (24 h): 201.2 mg/dL; IP (24 h): 7.7 mg/dL; K (24 h): 4.1 meq/L; LDH (24 h): 185.8 IU/L; Na (24 h): 141.6 meq/L; PL (24 h): 137.4 mg/dL; RALB (24 h): 3 g/dL; TBIL (24 h): 0.004 mg/dL; TC (24 h): 71.8 mg/dL; TG (24 h): 97 mg/dL; TP (24 h): 5.4 g/dL
